Test results published in ChEMBL document CHEMBL1158080, “Dehydrozingerone, chalcone, and isoeugenol analogues as in vitro anticancer agents” (J Nat Prod, 2006).
Values after ≈ are worked out from the molar mass of the structure shown.

Legend:
Assay type in all cases: functional, cell-based
A549 = assay: Cytotoxicity against human A549 cells after 2 days by sulforhodamine B assay; conditions: A549, 48 h
KB [1] = assay: Cytotoxicity against multidrug-resistant human KB-VCR cells after 2 days by sulforhodamine B assay; conditions: 48 h
KB [2] = assay: Cytotoxicity against human KB cells after 2 days by sulforhodamine B assay; conditions: 48 h

SMILES	IC50 (A549) [µg/mL]	IC50 (KB [1]) [µg/mL]	IC50 (KB [2]) [µg/mL]
C/C=C/COc1ccc(/C=C/C(C)=O)cc1OC	6.8 (≈ 27.6 µM)	3.4 (≈ 13.8 µM)	4.8 (≈ 19.5 µM)
CCCOc1ccc(/C=C/C(C)=O)cc1OC	5.8 (≈ 24.8 µM)	4.2 (≈ 17.9 µM)	6.5 (≈ 27.7 µM)
COc1cccc2c1C(=O)c1c(O)c3c(c(O)c1C2=O)C[C@@](O)(C(=O)CO)C[C@@H]3O[C@H]1C[C@H](N)[C@H](O)[C@H](C)O1 [DOXORUBICIN]	0.1 (≈ 0.184 µM)	2.7 (≈ 4.97 µM)	0.1 (≈ 0.184 µM)
COc1cc(/C=C/C(=O)CC(=O)/C=C/c2ccc(O)c(OC)c2)ccc1O [CURCUMIN]	5.2 (≈ 14.1 µM)	3.1 (≈ 8.42 µM)	5.5 (≈ 14.9 µM)
C/C=C/c1ccc(OC)c(OC)c1 [METHYLISOEUGENOL]	–	> 10	> 10
COc1ccc(/C=C/C(C)=O)cc1F	5.5 (≈ 28.3 µM)	5 (≈ 25.7 µM)	4.3 (≈ 22.1 µM)
COc1cc(/C=C/C(C)=O)ccc1O [DEHYDROZINGERONE]	> 10	> 10	> 10
COc1cc(/C=C/C(C)=O)ccc1OC/C=C(\C)CCC=C(C)C	3.4 (≈ 10.4 µM)	3.3 (≈ 10 µM)	2.2 (≈ 6.7 µM)
C/C=C/c1ccc(OCCC(C)C)c(OC)c1	–	> 10	> 10
COc1cccc(/C=C/C(=O)c2ccccc2)c1O	0.6 (≈ 2.36 µM)	1.3 (≈ 5.11 µM)	2.4 (≈ 9.44 µM)
COc1ccc(/C=C/C(=O)c2ccccc2)c(O)c1	3.8 (≈ 14.9 µM)	2 (≈ 7.87 µM)	2 (≈ 7.87 µM)
C=CCOc1ccc(/C=C/C(C)=O)cc1OC	5.8 (≈ 25 µM)	5 (≈ 21.5 µM)	6.8 (≈ 29.3 µM)
COc1cc(/C=C/C(C)=O)ccc1OCCC(C)C	7.2 (≈ 27.4 µM)	3.2 (≈ 12.2 µM)	3.6 (≈ 13.7 µM)
CCOc1cc(/C=C/C(C)=O)ccc1O	8.5 (≈ 41.2 µM)	7.8 (≈ 37.8 µM)	7.7 (≈ 37.3 µM)
CCOc1ccc(/C=C/C(C)=O)cc1OC	> 10	8 (≈ 36.3 µM)	5.5 (≈ 25 µM)
C/C=C/COc1ccc(/C=C/C)cc1OC	–	> 10	> 10
COc1cc(/C=C/C(C)=O)ccc1OC/C=C(\C)CC/C=C(\C)CCC=C(C)C	7.4 (≈ 18.7 µM)	7.4 (≈ 18.7 µM)	6.5 (≈ 16.4 µM)
CC(=O)/C=C/c1cccc(F)c1O	3 (≈ 16.7 µM)	3 (≈ 16.7 µM)	2.1 (≈ 11.7 µM)
CCOc1cccc(/C=C/C(C)=O)c1O	2.3 (≈ 11.2 µM)	1.9 (≈ 9.21 µM)	2 (≈ 9.7 µM)
COc1ccc(/C=C/C(=O)c2ccccc2)cc1O	3.5 (≈ 13.8 µM)	1 (≈ 3.93 µM)	1 (≈ 3.93 µM)
C/C=C/c1ccc(OC/C=C(\C)CC/C=C(\C)CCC=C(C)C)c(OC)c1	–	> 10	> 10
COc1ccc(/C=C/C(C)=O)cc1O	> 10	8.2 (≈ 42.7 µM)	10 (≈ 52 µM)
C/C=C/c1ccc(OCC=C(C)C)c(OC)c1	–	> 10	> 10
COc1ccc(/C=C/C(C)=O)c(O)c1	3.5 (≈ 18.2 µM)	4 (≈ 20.8 µM)	3.8 (≈ 19.8 µM)
C=CCOc1ccc(/C=C/C)cc1OC	–	> 10	> 10
C/C=C/c1ccc(OCCC)c(OC)c1	–	> 10	> 10
COc1cc(/C=C/C(C)=O)ccc1OCC=C(C)C	3.8 (≈ 14.6 µM)	3.5 (≈ 13.4 µM)	5.7 (≈ 21.9 µM)
COc1cc(/C=C/C(=O)c2ccccc2)ccc1O	2.3 (≈ 9.04 µM)	1.9 (≈ 7.47 µM)	3.5 (≈ 13.8 µM)
COc1cccc(/C=C/C(C)=O)c1O	2.5 (≈ 13 µM)	2 (≈ 10.4 µM)	3.8 (≈ 19.8 µM)
COc1ccc(/C=C/C(C)=O)cc1OC	8 (≈ 38.8 µM)	7.8 (≈ 37.8 µM)	8.6 (≈ 41.7 µM)
